This is an account of results in patent US8258168B2, “2H or 3H-benzo[E]indazol-1-YL carbamate derivatives, the preparation and therapeutic use thereof” (Sanofi, priority 2004, dated 2012).

Data set [1] deals with T1, peripheral-type benzodiazepine receptors (PBR or p sites) (Rattus norvegicus, UniProt P16257).
T1 construct: After decapitation, the kidney is removed and the tissue is homogenized; from tissue; host or cells: kidney membrane homogenate of male Sprague-Dawley rats
The experiment in a line: Binding of [3H]Ro5-4864 to peripheral-type benzodiazepine receptors in rat kidney membranes.

The test system of data set [2] is motor neurons of the facial nucleus. The experiment in a line: Test of survival of the motor neurons after sectioning the facial nerve in rats aged 4 days. The data set is classed as in vivo, rat. To be noted: immature rats, facial nerve section, treated for 7 days. Here is the method: Study of the Neuroprotective Activity
Test of Survival of the Motor Neurons after Sectioning the Facial Nerve in Rats Aged 4 Days
After lesion of the facial nerve in immature rats, the motor neurons of the facial nucleus experience neuronal death by apoptosis. Neuronal survival is evaluated using neuronal counting and histological methods.
Immature rats aged 4 days are anaesthetized with pentobarbital (3 mg/kg by the i.p. route). The right facial nerve is exposed and sectioned at its outlet from the stylomastoid foramen. After waking up, the young rats are returned to their mothers and are treated for 7 days with one or two daily administrations, by the oral or intraperitoneal route, at doses ranging from 1 to 10 mg/kg.
7 days after the lesion, the animals are decapitated and the brains are frozen in isopentane at −40° C. The entire facial […] is cut with a cryostat into sections with a width of 10 μm. The motor neurons are stained with cresyl violet and counted using the Histo™ software (Biocom™)

T1 sequence (P16257 whole entry): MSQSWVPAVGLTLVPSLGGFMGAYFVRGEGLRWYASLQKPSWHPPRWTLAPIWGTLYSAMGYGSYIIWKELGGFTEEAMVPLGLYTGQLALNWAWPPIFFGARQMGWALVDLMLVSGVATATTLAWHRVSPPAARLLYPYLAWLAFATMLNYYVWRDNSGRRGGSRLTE

As to `CC(C)N(C(=O)Oc1nn(-c2ccncc2)c2c1-c1ccc(Cl)cc1CC2)C(C)C.Cl`, the melting point (usually the temperature of the solid-liquid transition) is 146 to 148 °C.

Regarding `CCN(CC)C(=O)Oc1c2c(nn1-c1ccccc1)CCc1cc(Cl)ccc1-2` [compound 14], the IC50 – broadly, the concentration that gives 50% inhibition – in data set [1] is 1.6 nM. The “% increase in the survival of the neurons (10 mg/kg po)” value (“% increase in the survival” for short) in data set [2] came out at 38%.

In data set [1], `CCN(CC)C(=O)Oc1c2c(nn1-c1ccc(F)cc1)CCc1ccccc1-2` [compound 20] returned an IC50 of 2.8 nM. For the same molecule, the “% increase in the survival” value in data set [2] is listed as 59%.

On to `CCN(CC)C(=O)Oc1c2c(ccc3cc(Cl)ccc32)nn1-c1ccc(F)cc1` [compound 56], for which the IC50 in data set [1] was 1.4 nM. Moreover, the “% increase in the survival” value in data set [2] amounted to 74%.

Molecule `CCN(CC)C(=O)Oc1c2c(nn1-c1ccncc1)CCc1cc(Cl)ccc1-2.Cl` showed a melting point of 250 to 251 °C.
